What was measured:
[1] = target: T1, HA-ARID4B (Homo sapiens, UniProt Q4LE39); test: CETSA in HEK-293T cells expressing HA-ARID4B; format: cell-based; conditions: 10 μM, 2 h
T1 construct: transfected with vector, full-length ARID4B or ARID4B deletion mutants; expressed in transfected cells; host or cells: HEK-293T
T1 sequence (Q4LE39 1-1312): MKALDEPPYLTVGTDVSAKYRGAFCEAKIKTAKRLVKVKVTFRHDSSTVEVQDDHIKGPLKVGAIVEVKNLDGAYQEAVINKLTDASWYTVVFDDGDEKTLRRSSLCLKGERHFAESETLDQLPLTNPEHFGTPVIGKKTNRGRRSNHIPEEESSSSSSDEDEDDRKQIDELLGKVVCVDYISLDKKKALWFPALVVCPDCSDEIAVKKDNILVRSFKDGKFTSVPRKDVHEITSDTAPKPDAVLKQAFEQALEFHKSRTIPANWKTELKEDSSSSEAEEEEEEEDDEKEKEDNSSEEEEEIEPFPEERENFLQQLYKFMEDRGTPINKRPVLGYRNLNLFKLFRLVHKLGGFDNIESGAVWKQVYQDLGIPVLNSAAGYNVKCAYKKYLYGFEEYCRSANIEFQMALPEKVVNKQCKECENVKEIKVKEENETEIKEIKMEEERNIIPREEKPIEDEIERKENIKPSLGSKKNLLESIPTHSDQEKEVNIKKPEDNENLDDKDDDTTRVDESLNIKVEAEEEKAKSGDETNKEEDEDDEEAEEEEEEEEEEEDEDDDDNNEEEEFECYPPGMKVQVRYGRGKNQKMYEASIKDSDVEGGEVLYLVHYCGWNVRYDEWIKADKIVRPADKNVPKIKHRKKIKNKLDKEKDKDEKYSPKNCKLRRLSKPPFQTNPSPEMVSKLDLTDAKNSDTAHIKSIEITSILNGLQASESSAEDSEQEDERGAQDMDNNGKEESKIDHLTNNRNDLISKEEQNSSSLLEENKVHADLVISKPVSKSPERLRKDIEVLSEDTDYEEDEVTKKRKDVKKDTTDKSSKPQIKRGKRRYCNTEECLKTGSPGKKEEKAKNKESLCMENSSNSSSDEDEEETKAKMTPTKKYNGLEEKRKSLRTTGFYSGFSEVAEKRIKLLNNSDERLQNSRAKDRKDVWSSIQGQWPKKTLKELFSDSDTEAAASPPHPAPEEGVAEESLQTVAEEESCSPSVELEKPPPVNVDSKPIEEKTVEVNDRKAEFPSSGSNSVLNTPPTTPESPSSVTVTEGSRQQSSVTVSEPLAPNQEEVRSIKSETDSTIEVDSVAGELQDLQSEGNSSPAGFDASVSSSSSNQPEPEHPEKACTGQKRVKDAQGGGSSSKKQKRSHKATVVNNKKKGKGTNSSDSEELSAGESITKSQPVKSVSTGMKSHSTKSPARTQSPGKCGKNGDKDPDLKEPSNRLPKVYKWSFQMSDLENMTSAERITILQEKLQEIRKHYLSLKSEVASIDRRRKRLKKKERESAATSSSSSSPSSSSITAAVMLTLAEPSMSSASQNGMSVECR
Protocol: (B-C) show cells expressing HA-ARID4B (C) or HA-ARID4BIC (D) treated or not with ARD150 (10 μM) for 2 h were used for CESTA. […] (D-E) show cells expressing HA-ARID4B (D) or Flag-ARID4A (E) treated or not with RWR-18 (10 μM) for 2 h were used for CESTA. […] Data are means±SEM from three experiments. *P<0.05, **P<0.01, ns, not significant.
Using CETSA (cellular thermal shift assay) to examine whether ARD150 or RWR-18 binds to ARID4B, MCF7 cells treated or not with ARD150 or RWR-18 for 2 h were collected, followed by heating at 46, 49, 52, 55, and 58° C. to denature and precipitate ARID4B protein, cell lysis, removal of cell debris and aggregates by centrifugation, and finally detection of remaining thermostable ARID4B protein by western blot. The ARID4B aggregation temperatures without ARD150 were determined to be 49-52° C., but shifted to 52-55° C. after treatment with ARD150 and even more so with RWR-18 (FIG. 15A-D). To determine whether ARD150 and RWR-18 targets the chromodomain of ARID4B, CESTA was performed using chromodomain deletion mutant (ARID4BAC). HEK-293T cells expressing HA-ARID4B or HA-ARID4BAC were treated or not with ARD150 (10 μM) for 2 h and processed for CESTA.

[2] = target: T2, ARID4B chromodomain (Homo sapiens, UniProt Q4LE39); test: Isothermal titration calorimetry (ITC); format: binding
T2 sequence (Q4LE39 572-624 limits assumed): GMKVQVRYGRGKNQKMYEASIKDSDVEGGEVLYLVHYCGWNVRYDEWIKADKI
Text: It was then undertaken to identify compounds that inhibit ARID4B, focusing on the chromodomain therein. First, the structure of ARID4B was created using a homology model based on an optimized computational platform that combines the iterative threading assembly refinement (TASSER) and SWISSMODEL (FIG. 14A-B). Protein structure prioritization was based on protein-model accuracy, quantitatively measured C-score, TM-score and RMSD value. Next, in silico screening of 160,000 drug-like diverse small molecules from MOE's chemical repository combined with biophysical characterization including isothermal calorimetry (ITC, FIG. 16) and circular dichroism (data not shown) of identified compound ARD150 with recombinant ARID4B chromodomain informed chemical synthesis of diverse scaffolds.
Isothermal titration calorimetry (ITC) was used to confirm the binding of ARD150 and its derivative RWR18 (derived from ARD150 with slight structural modifications) to ARID4B chromodomain and to determine the Kd, reaction stoichiometry (n), enthalpy (ΔH) and entropy (ΔS). […] This highlights to power of rational design to tune the target engagement and affinity of ligands.

[3] = test system: T47D; test: MTT proliferation assay, T47D; format: cell-based; conditions: data not shown
[4] = test system: MCF10A; test: Proliferation assay, non-tumorigenic MCF10A; format: cell-based; conditions: MCF10A expresses lower ARID4B
[5] = test system: MCF7 Y537S; test: MTT proliferation assay, MCF7 Y537S; format: cell-based; conditions: data not shown
Protocol: (§1) To determine the EC50 of ARD150 and two of its derivatives in breast cancer, MCF7, ZR75-1 (wild-type ERα+), and MCF7 Y537S (constitutively activate ERα mutant) and their ARID4B KO counterparts were seeded in 24 well plate and treated with the various concentrations (0, 0.1, 1, 5, 10, 20, 40, 60, and 100 μM) of ARD150 and RWR-18 for 14 days. […] Knockout of ARID4B renders cells less sensitive to these compounds.

[6] = test system: MCF7; test: MTT proliferation assay, MCF7; format: cell-based; conditions: Homo sapiens, MCF7, 336 h, 14 days
Protocol: as §1

Structure (SMILES) | shift of aggregation temperatures of HA-ARID4B [1] | Kd [2] | EC50 for T47D [3] | effect on non-tumorigenic MCF10A [4] | EC50 for MCF7 Y537S [5] | EC50 [6]
COc1ccc(C(=O)NCCCN2CCOCC2)cc1OC [ARD150] | resulted in a shift of aggregation temperatures | 3.5 µM | comparable to that of MCF7 | insensitive | comparable to that of MCF7 | 13.8 µM
O=C(COc1ccc(OCc2ccccc2)cc1)NCCCN1CCOCC1 [RWR-18] | resulted in a shift of aggregation temperatures | 1 µM | comparable to that of MCF7 | insensitive | comparable to that of MCF7 | 7.9 µM

Reference: US20250099405A1, “COMPOSITIONS, METHODS, AND DEVELOPMENT OF ARID4B INHIBITORS” (University of Kentucky Research Foundation, priority 2022, published 2025)
